From EP0185961A2, “1-Phenyl-imidazole-5-carboxylic acid derivatives, process for their preparation and their use as growth regulators” (HOECHST AKTIENGESELLSCHAFT, priority 1984, dated 1986) come the findings set out here.

In one data set the test system is Roggen. The data set can be described thus: Growth inhibition in cereals, greenhouse tray test, sprayed at 3-leaf stage. The note with it: % of growth increment of untreated controls, read-out: Wuchsshemmung in % bei Roggen; for pest or weed control at 1250 g/ha: 1,25 kg/ha; for pest or weed control at 2500 g/ha: 2,5 kg/ha. The data set is classed as in vivo. The source says:
(§1) In Schalenversuchen im Gewächshaus werden junge Getreidepflanzen (Weizen, Gerste, Roggen) im 3-Blattstadium mit erfindungsgemäßen Verbindungen in verschiedenen Wirkstoffkonzentrationen (kg/ha) tropfnaß gespritzt. […]

The test system of the next data set is Weizen. Described as above. To be noted: % of growth increment of untreated controls (100% = growth standstill), read-out: Wuchsshemmung in % bei Weizen; for pest or weed control at 1250 g/ha: 1,25 kg/ha; for pest or weed control at 2500 g/ha: 2,5 kg/ha. In kind it is in vivo.
Source text: as §1

A further data set deals with Gerste. The description is as above. To be noted: % of growth increment of untreated controls, read-out: Wuchsshemmung in % bei Gerste; for pest or weed control at 1250 g/ha: 1,25 kg/ha; for pest or weed control at 2500 g/ha: 2,5 kg/ha. The data set is classed as in vivo. The text has this:
(§2) In Schalenversuchen im Gewächshaus werden junge Getreidepflanzen (Weizen, Gerste, Roggen) im 3-Blattstadium mit erfindungsgemäßen Verbindungen in verschiedenen Wirkstoffkonzentrationen (kg/ha) tropfnaß gespritzt.
(§3) Es wird außerdem die phytotoxische Wirkung der Verbindung beobachtet.

Data set [1] has as its system Getreidepflanzen (Weizen, Gerste, Roggen). The data set can be described thus: Phytotoxic effect observed in the cereal growth inhibition test. The data set is classed as in vivo. The note with it: cereals; one cell for 2,5 and 1,25 kg/ha.
Source text: as §2, §3

In data set [2] the test system is Reispflanzen. To be noted: in vivo.
Source text: (§4) Reispflanzen werden in Kleinparzellen (2 m x 2 m) angezogen und im Stadium der maximalen Bestockung mit erfindungsgemäßen Verbindungen behandelt. Die Substanzen werden sowohl durch Spritzung appliziert als auch in das Wasser gegeben.
(§5) 3 Wochen nach der Behandlung wird bei allen Pflanzen der Zuwachs gemessen und die Wuchshemmung in % des Zuwachses der Kontrollpflanzen berechnet. Es wird außerdem auf eine mögliche phytotoxische Wirkung der Verbindungen geachtet.
(§6) Die Wuchshemmung wird als prozentualer Wert ermittelt, wobei 100% den Stillstand des Wachstums und 0% ein Wachstum entsprechend dem der unbehandelten Kontrollpflanzen bedeuten.
Data set [3] concerns Sojabohnen. To be noted: in vivo.
Source text: (§7) Etwa 10 cm große Sojabohnen werden mit den Wirkstoffzubereitungen tropfnaß bespritzt. Nach 3 Wochen wird bonitiert.
as §6
In data set [4] the test system is Sojabohnen. The data set can be described thus: Growth inhibition in soybeans. To be noted: Glycine max, 504 h, read-out: Wuchsshemmung (%).
Source text: as §7, §6
The test system of data set [5] is Reispflanzen. Put plainly: Growth inhibition in paddy rice, small plots. To be noted: Oryza sativa, 504 h, read-out: Wuchsshemmung (%).
Source text: as §4, §5, §6

As to `CCc1cccc(CC)c1-n1cncc1C(=O)NN(C)C` [Beispiel 66], the pest or weed control at 1250 g/ha with Roggen was determined as 18%; with Weizen it was 14%; in the data set on Gerste, 19%; in the data set on Reispflanzen [5], 21%. The pest or weed control at 2500 g/ha with Roggen is 25%; in the data set on Weizen, 22%; in the data set on Gerste, 31%; in the data set on Sojabohnen [4] it was 18%. The “Phytotox. Wirkung” value (in data set [1]; in the data set on Reispflanzen [2]; with Sojabohnen [3]) was “keine Schäden” each time. The pest or weed control at 620 g/ha in the data set on Reispflanzen [5] turned out to be 12%.

`CCc1cccc(CC)c1-n1cncc1C(=O)NO` [Beispiel 68]: the pest or weed control at 1250 g/ha was 21% in the data set on Roggen, 20% with Weizen, 21% in the data set on Gerste and 25% in the data set with Reispflanzen [5]. In addition, the pest or weed control at 2500 g/ha was 27% in the data set with Roggen, 24% in the data set with Weizen, 34% in the data set on Gerste and 26% in the data set with Sojabohnen [4]. The “Phytotox. Wirkung” value (in data set [1]; with Reispflanzen [2]; with Sojabohnen [3]) was “keine Schäden” each time. Also, the pest or weed control at 620 g/ha in the data set on Reispflanzen [5] is 18%.

In the case of `CCc1cccc(CC)c1-n1cncc1C(=O)NNC(N)=O` [Beispiel 70], the pest or weed control at 1250 g/ha in the data set with Roggen amounted to 21%; in the data set with Weizen it was 12%; in the data set with Gerste it was 18%; in the data set on Reispflanzen [5], 21%. Further, the pest or weed control at 2500 g/ha with Roggen is 25%; with Weizen it was 22%; in the data set on Gerste it was 27%; in the data set on Sojabohnen [4], 19%. Besides, the “Phytotox. Wirkung” value (in data set [1]; in the data set on Reispflanzen [2]; in the data set on Sojabohnen [3]) was “keine Schäden” in each case. In addition, in the data set on Reispflanzen [5], the pest or weed control at 620 g/ha came out at 14%.

On to `CCc1cccc(CC)c1-n1cncc1C(=O)n1cncn1` [Beispiel 76], for which the pest or weed control at 1250 g/ha with Roggen was 15%; in the data set with Weizen it was 13%; in the data set on Gerste, 17%; in the data set with Reispflanzen [5], 19%. For the same molecule, the pest or weed control at 2500 g/ha in the data set with Roggen amounted to 23%; in the data set with Weizen, 21%; in the data set with Gerste, 27%; with Sojabohnen [4], 21%. For the same molecule, the “Phytotox. Wirkung” value (in data set [1]; in the data set with Reispflanzen [2]; in the data set with Sojabohnen [3]) was “keine Schäden” each time. The pest or weed control at 620 g/ha in the data set with Reispflanzen [5] amounted to 14%.

Turning to `CCc1cccc(CC)c1-n1cncc1COCc1ccccc1C` [Beispiel 95], the pest or weed control at 1250 g/ha with Roggen came to 15%; in the data set with Weizen, 14%; in the data set on Gerste it was 17%; with Reispflanzen [5], 18%. The pest or weed control at 2500 g/ha in the data set on Roggen amounted to 22%; in the data set on Weizen, 19%; in the data set with Gerste, 25%; in the data set with Sojabohnen [4], 20%. The “Phytotox. Wirkung” value (in data set [1]; in the data set with Reispflanzen [2]; with Sojabohnen [3]) was “keine Schäden” throughout. For the same molecule, the pest or weed control at 620 g/ha with Reispflanzen [5] was 14%.

Regarding `CCc1cccc(CC)c1-n1cncc1C(=O)NS(=O)(=O)c1ccccc1Cl` [Beispiel 103], the pest or weed control at 1250 g/ha in the data set on Roggen worked out at 16%; with Weizen, 16%; with Gerste it was 19%; with Reispflanzen [5], 21%. Moreover, the pest or weed control at 2500 g/ha turned out to be 27% in the data set on Roggen, 23% in the data set on Weizen, 29% in the data set on Gerste and 22% in the data set on Sojabohnen [4]. Further, the “Phytotox. Wirkung” value (in data set [1]; in the data set with Reispflanzen [2]; in the data set with Sojabohnen [3]) was “keine Schäden” throughout. Besides, in the data set on Reispflanzen [5], the pest or weed control at 620 g/ha turned out to be 15%.

For `CCc1cccc(CC)c1-n1cncc1C(=O)OC(=O)c1cncn1-c1c(CC)cccc1CC` [Beispiel 115], the pest or weed control at 1250 g/ha amounted to 24% with Roggen, 14% in the data set on Weizen, 19% in the data set with Gerste and 28% in the data set on Reispflanzen [5]. For the same molecule, the pest or weed control at 2500 g/ha amounted to 31% in the data set with Roggen, 24% in the data set with Weizen, 38% in the data set with Gerste and 15% in the data set on Sojabohnen [4]. Also, the “Phytotox. Wirkung” value (in data set [1]; with Reispflanzen [2]; in the data set with Sojabohnen [3]) was “keine Schäden” in each case. Moreover, the pest or weed control at 620 g/ha in the data set with Reispflanzen [5] was found to be 19%.
